Reference: patent publication US5885994A, “Tetrahydroquinoxaline dopamine D4 receptor antagonists” (Warner-Lambert Company, priority 1998, dated 1999)

Tested on: apomorphine-induced disruption of prepulse inhibition
Experiment: Prepulse inhibition of acoustic startle model in rats
Type: in vivo
Settings: rat, 30 mg/kg IP
Description: PROTOCOL FOR THE PREPULSE INHIBITION OF ACOUSTIC STARTLE MODEL IN RATS
Prepulse inhibition (PPI) of acoustic startle is a form of sensorimotor gating which occurs when a weak stimulus precedes a startling stimulus, resulting in diminution of the startle response amplitude. […] Thus, an animal model utilizing this phenomenon would be quite useful in the study of known and potential antipsychotic agents.
This indicates a possible role of DA D2-like receptor stimulation in reducing sensorimotor gating in the rat.
Male Sprague-Dawley rats from Harlan Labs (180-280 g) were housed in groups of five rats per cage and maintained on a 12-hour light/dark cycle with free access to food pellets and water. […]
Eight startle chambers (SR-LAB, San Diego Instruments) were used, each consisting of a Plexiglas cylinder resting on a Plexiglas frame within a ventilated sound-attenuating enclosure. […] The average responses during the 100 msec record window (100×1 msec readings) were recorded by microcomputer and interface assembly (San Diego Instruments). […] Sound levels were assessed with a Radio Shack dB meter. […]
The test session in all experiments consisted of a total of 90 trials after a 5-minute test acclimation period of 70 dB white noise. […] When the prepulse was paired with the 120 dB pulse, no obvious acoustic difference could be detected by the human ear as compared to the 120 dB pulse alone. […]

Cc1ccc(N2CCN(Cc3ccc4c(c3)NCCN4)CC2)cc1C [Example 2, 6-[4-(3,4-Dimethylphenyl)piperazin-1-ylmethyl]-1,2,3,4-tetrahydroquinoxaline]
blockade of apomorphine-induced disruption of prepulse inhibition in the Acoustic Startle test: significant blockade
